ChEMBL document CHEMBL3046898, “Synthesis and characterization of flurbiprofen hydrazide derivatives as potential anti-HCV, anticancer and antimicrobial agents” (2013)
The source made the active and inactive calls. The calls are words filed in the database; no cut-off is given here.

Assays:
Candida parapsilosis = assay: Antifungal activity against Candida parapsilosis at 10 mg/ml after 48 hrs by disc diffusion method; type: functional, organism-based
Pseudomonas aeruginosa [1] = assay: Antibacterial activity against Pseudomonas aeruginosa at 10 mg/ml after 24 hrs by disc diffusion method; type: functional, organism-based
Proteus vulgaris [2] = assay: Antibacterial activity against Proteus vulgaris at 10 mg/ml after 24 hrs by disc diffusion method; type: functional, organism-based
Pichia membranifaciens = assay: Antifungal activity against Pichia membranifaciens at 10 mg/ml after 48 hrs by disc diffusion method; type: functional, organism-based
Staphylococcus aureus [3] = assay: Antibacterial activity against Staphylococcus aureus at 6.25 to 200 ug/ml after 24 hrs by microwell dilution assay; type: functional, organism-based
Pseudomonas aeruginosa [4] = assay: Antibacterial activity against Pseudomonas aeruginosa at 6.25 to 200 ug/ml after 24 hrs by microwell dilution method; type: functional, organism-based
Photorhabdus luminescens [5] = assay: Antibacterial activity against Photorhabdus luminescens at 6.25 to 200 ug/ml after 24 hrs by microwell dilution method; type: functional, organism-based
Candida tropicalis = assay: Antifungal activity against Candida tropicalis at 10 mg/ml after 48 hrs by disc diffusion method; type: functional, organism-based
Klebsiella aerogenes [6] = assay: Antibacterial activity against Enterobacter aerogenes at 6.25 to 200 ug/ml after 24 hrs by microwell dilution method; type: functional, organism-based
[7] = system: Acinetobacter radioresistens; assay: Antibacterial activity against Acinetobacter radioresistens at 6.25 to 200 ug/ml after 24 hrs by microwell dilution method; type: functional, organism-based
Klebsiella aerogenes [8] = assay: Antibacterial activity against Enterobacter aerogenes at 10 mg/ml after 24 hrs by disc diffusion method; type: functional, organism-based
Staphylococcus aureus [9] = assay: Antibacterial activity against Staphylococcus aureus at 10 mg/ml after 24 hrs by disc diffusion method; type: functional
Nakaseomyces glabratus = assay: Antifungal activity against Candida glabrata at 10 mg/ml after 48 hrs by disc diffusion method; type: functional, organism-based
[10] = system: Acinetobacter radioresistens; assay: Antibacterial activity against Acinetobacter radioresistens at 10 mg/ml after 24 hrs by disc diffusion method; type: functional, organism-based
Salmonella paratyphi [11] = assay: Antibacterial activity against Salmonella paratyphi at 6.25 to 200 ug/ml after 24 hrs by microwell dilution method; type: functional, organism-based; details: Salmonella enterica subsp. enterica serovar Paratyphi A
Micrococcus luteus [12] = assay: Antibacterial activity against Micrococcus luteus at 10 mg/ml after 24 hrs by disc diffusion method; type: functional, organism-based
Proteus vulgaris [13] = assay: Antibacterial activity against Proteus vulgaris at 6.25 to 200 ug/ml after 24 hrs by microwell dilution method; type: functional, organism-based
Salmonella paratyphi [14] = assay: Antibacterial activity against Salmonella paratyphi at 10 mg/ml after 24 hrs by disc diffusion method; type: functional, organism-based; details: Salmonella enterica subsp. enterica serovar Paratyphi A
Micrococcus lylae [15] = assay: Antibacterial activity against Micrococcus lylae at 6.25 to 200 ug/ml after 24 hrs by microwell dilution method; type: functional, organism-based
[16] = system: Schwanniomyces occidentalis; assay: Antifungal activity against Schwanniomyces occidentalis at 10 mg/ml after 48 hrs by disc diffusion method; type: functional, organism-based
Candida albicans = assay: Antifungal activity against Candida albicans at 10 mg/ml after 48 hrs by disc diffusion method; type: functional, organism-based
Kluyveromyces marxianus = assay: Antifungal activity against Kluyveromyces marxianus at 10 mg/ml after 48 hrs by disc diffusion method; type: functional, organism-based
Staphylococcus cohnii [17] = assay: Antibacterial activity against Staphylococcus cohnii at 10 mg/ml after 24 hrs by disc diffusion method; type: functional
Micrococcus lylae [18] = assay: Antibacterial activity against Micrococcus lylae at 10 mg/ml after 24 hrs by disc diffusion method; type: functional, organism-based
Photorhabdus luminescens [19] = assay: Antibacterial activity against Photorhabdus luminescens at 10 mg/ml after 24 hrs by disc diffusion method; type: functional, organism-based
Staphylococcus cohnii [20] = assay: Antibacterial activity against Staphylococcus cohnii at 6.25 to 200 ug/ml after 24 hrs by microwell dilution assay; type: functional, organism-based
Hepacivirus hominis = assay: Inhibition of HCV N-terminal His-tagged NS5B RNA dependent RNA polymerase expressed in Escherichia coli DH5alpha using poly rA/U12 as primer at 200 uM after 60 mins by liquid scintillation counting
Escherichia coli [21] = assay: Antibacterial activity against Escherichia coli at 6.25 to 200 ug/ml after 24 hrs by microwell dilution method; type: functional, organism-based
Escherichia coli [22] = assay: Antibacterial activity against Escherichia coli at 10 mg/ml after 24 hrs by disc diffusion method; type: functional, organism-based
Aspergillus = assay: Antifungal activity against Aspergillus at 10 mg/ml after 72 hrs by disc diffusion method; type: functional, organism-based
Micrococcus luteus [23] = assay: Antibacterial activity against Micrococcus luteus at 6.25 to 200 ug/ml after 24 hrs by microwell dilution method; type: functional, organism-based

SMILES	Activity (Candida parapsilosis)	Activity (Pseudomonas aeruginosa [1])	Activity (Proteus vulgaris [2])	Activity (Pichia membranifaciens)	Activity (Staphylococcus aureus [3])	Activity (Pseudomonas aeruginosa [4])	Activity (Photorhabdus luminescens [5])	Activity (Candida tropicalis)	Activity (Klebsiella aerogenes [6])	Activity [7]	Activity (Klebsiella aerogenes [8])	Activity (Staphylococcus aureus [9])	Activity (Nakaseomyces glabratus)	Activity [10]	Activity (Salmonella paratyphi [11])	Activity (Micrococcus luteus [12])	Activity (Proteus vulgaris [13])	Activity (Salmonella paratyphi [14])	Activity (Micrococcus lylae [15])	Activity [16]	also measured
CC(C(=O)NN1C(=O)CSC1c1ccc([N+](=O)[O-])cc1)c1ccc(-c2ccccc2)c(F)c1 (configuration not stated)	inactive	inactive	inactive	inactive	inactive	inactive	inactive	inactive	inactive	inactive	inactive	inactive	inactive	inactive	inactive	inactive	inactive	inactive	inactive	inactive	Activity (Candida albicans): inactive; Activity (Kluyveromyces marxianus): inactive; Activity (Staphylococcus cohnii [17]): inactive; Activity (Micrococcus lylae [18]): inactive; Activity (Photorhabdus luminescens [19]): inactive; Activity (Staphylococcus cohnii [20]): inactive; inhibition (Hepacivirus hominis): 8%; Activity (Escherichia coli [21]): inactive; Activity (Escherichia coli [22]): inactive; Activity (Aspergillus): inactive; Activity (Micrococcus luteus [23]): inactive
CC(C(=O)N/N=C/c1ccc([N+](=O)[O-])o1)c1ccc(-c2ccccc2)c(F)c1 (configuration not stated)	inactive	inactive	inactive	inactive	inactive	inactive	inactive	inactive	inactive	inactive	inactive	inactive	inactive	inactive	inactive	inactive	inactive	inactive	inactive	inactive	Activity (Candida albicans): inactive; Activity (Kluyveromyces marxianus): inactive; Activity (Staphylococcus cohnii [17]): inactive; Activity (Micrococcus lylae [18]): inactive; Activity (Photorhabdus luminescens [19]): inactive; Activity (Staphylococcus cohnii [20]): inactive; inhibition (Hepacivirus hominis): 8%; Activity (Escherichia coli [21]): inactive; Activity (Escherichia coli [22]): inactive; Activity (Aspergillus): inactive; Activity (Micrococcus luteus [23]): inactive
CC(C(=O)N/N=C1\SCC(=O)N1C)c1ccc(-c2ccccc2)c(F)c1 (configuration not stated)	inactive	inactive	inactive	inactive	inactive	inactive	inactive	inactive	inactive	inactive	inactive	inactive	inactive	inactive	inactive	inactive	inactive	inactive	inactive	inactive	Activity (Candida albicans): inactive; Activity (Kluyveromyces marxianus): inactive; Activity (Staphylococcus cohnii [17]): inactive; Activity (Micrococcus lylae [18]): inactive; Activity (Photorhabdus luminescens [19]): inactive; Activity (Staphylococcus cohnii [20]): inactive; inhibition (Hepacivirus hominis): 8%; Activity (Escherichia coli [21]): inactive; Activity (Escherichia coli [22]): inactive; Activity (Aspergillus): inactive; Activity (Micrococcus luteus [23]): inactive
CC(C(=O)N/N=C/c1ccccc1F)c1ccc(-c2ccccc2)c(F)c1 (configuration not stated)	inactive	inactive	inactive	inactive	inactive	inactive	inactive	inactive	inactive	inactive	inactive	inactive	inactive	inactive	inactive	inactive	inactive	inactive	inactive	inactive	Activity (Candida albicans): inactive; Activity (Kluyveromyces marxianus): inactive; Activity (Staphylococcus cohnii [17]): inactive; Activity (Micrococcus lylae [18]): inactive; Activity (Photorhabdus luminescens [19]): inactive; Activity (Staphylococcus cohnii [20]): inactive; inhibition (Hepacivirus hominis): 8%; Activity (Escherichia coli [21]): inactive; Activity (Escherichia coli [22]): inactive; Activity (Aspergillus): inactive; Activity (Micrococcus luteus [23]): inactive
CC(C(=O)N/N=C/c1ccccc1Cl)c1ccc(-c2ccccc2)c(F)c1 (configuration not stated)	inactive	inactive	inactive	inactive	inactive	inactive	inactive	inactive	inactive	inactive	inactive	inactive	inactive	inactive	inactive	inactive	inactive	inactive	inactive	inactive	Activity (Candida albicans): inactive; Activity (Kluyveromyces marxianus): inactive; Activity (Staphylococcus cohnii [17]): inactive; Activity (Micrococcus lylae [18]): inactive; Activity (Photorhabdus luminescens [19]): inactive; Activity (Staphylococcus cohnii [20]): inactive; inhibition (Hepacivirus hominis): 8%; Activity (Escherichia coli [21]): inactive; Activity (Escherichia coli [22]): inactive; Activity (Aspergillus): inactive; Activity (Micrococcus luteus [23]): inactive
Cc1cc(C)c(/C=N/NC(=O)C(C)c2ccc(-c3ccccc3)c(F)c2)c(C)c1 (configuration not stated)	inactive	inactive	inactive	inactive	inactive	inactive	inactive	inactive	inactive	inactive	inactive	inactive	inactive	inactive	inactive	inactive	inactive	inactive	inactive	inactive	Activity (Candida albicans): inactive; Activity (Kluyveromyces marxianus): inactive; Activity (Staphylococcus cohnii [17]): inactive; Activity (Micrococcus lylae [18]): inactive; Activity (Photorhabdus luminescens [19]): inactive; Activity (Staphylococcus cohnii [20]): inactive; inhibition (Hepacivirus hominis): 8%; Activity (Escherichia coli [21]): inactive; Activity (Escherichia coli [22]): inactive; Activity (Aspergillus): inactive; Activity (Micrococcus luteus [23]): inactive
CCCCNC(=S)NNC(=O)C(C)c1ccc(-c2ccccc2)c(F)c1 (configuration not stated)	inactive	inactive	inactive	inactive	inactive	inactive	inactive	inactive	inactive	inactive	inactive	inactive	inactive	inactive	inactive	inactive	inactive	inactive	inactive	inactive	Activity (Candida albicans): inactive; Activity (Kluyveromyces marxianus): inactive; Activity (Staphylococcus cohnii [17]): inactive; Activity (Micrococcus lylae [18]): inactive; Activity (Photorhabdus luminescens [19]): inactive; Activity (Staphylococcus cohnii [20]): inactive; inhibition (Hepacivirus hominis): 70%; Activity (Escherichia coli [21]): inactive; Activity (Escherichia coli [22]): inactive; Activity (Aspergillus): inactive; Activity (Micrococcus luteus [23]): inactive
